This is an account of results in US11014929B2, “Pyrazolopyrimidine compounds and uses thereof” (Incyte Corporation, priority 2016, dated 2021).

In general, Ki refers to the equilibrium dissociation constant of an inhibitor or competing ligand from its target. High values mean lower affinity, low ones higher affinity.

Where only a bound is given, the exact number is not on record here.

HPK1, sequence (Q92918 1-346): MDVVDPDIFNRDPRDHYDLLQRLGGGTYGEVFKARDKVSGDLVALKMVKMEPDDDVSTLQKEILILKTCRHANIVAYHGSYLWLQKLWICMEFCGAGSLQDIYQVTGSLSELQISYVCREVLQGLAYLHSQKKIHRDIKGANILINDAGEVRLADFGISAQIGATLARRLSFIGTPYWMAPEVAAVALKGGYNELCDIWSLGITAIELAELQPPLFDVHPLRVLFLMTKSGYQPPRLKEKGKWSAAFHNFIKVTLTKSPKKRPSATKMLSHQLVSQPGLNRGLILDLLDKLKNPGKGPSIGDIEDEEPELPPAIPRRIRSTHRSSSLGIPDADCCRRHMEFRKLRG

This assay addresses HPK1 (Homo sapiens (Human), UniProt Q92918). Description: HPK1 Kinase Binding Assay. The conditions noted are these: LanthaScreen tracer 222 binding, active HPK1, one hour incubation at 25° C. Summed up: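 This is a LanthaScreen tracer-binding format: a tracer 222/Eu-anti-GST antibody mix (18 nM and 4 nM solution) is added to active HPK1 (4 nM solution) with 3-fold, 11-point compound dilutions. Incubation is 1 h at 25 °C in HEPES pH 7.5 buffer before reading, and Ki is determined.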
In the case of `CNCc1cc(F)c(-c2ncc3[nH]nc(-c4ccc(C5CCNCC5)cc4)c3n2)c(F)c1` [Example 65, 1-(3,5-Difluoro-4-(3-(4-(piperidin-4-yl)phenyl)-1H-pyrazolo[4,3-d]pyrimidin-5-yl)phenyl)-N-methylmethanamine], the Ki is at most 100 nM.
Compound `COc1cccc(F)c1-c1ncc2[nH]nc(-c3ccccc3F)c2n1` [Example 13, 5-(2-Fluoro-6-methoxyphenyl)-3-(2-fluorophenyl)-1H-pyrazolo[4,3-d]pyrimidine] had a Ki of 100 to 500 nM.
For `COc1cccc(F)c1-c1ncc2[nH]nc(-c3ccc(C(=O)N4CCOCC4)cc3)c2n1` [Example 31, (4-(5-(2-Fluoro-6-methoxyphenyl)-1H-pyrazolo[4,3-d]pyrimidin-3-yl)phenyl)(morpholino)methanone], the Ki was at most 100 nM.
With `Cc1c2c(cc(F)c1-c1ncc3[nH]nc(-c4ccc(N5CCN(C)CC5)nc4)c3n1)CCNC2` [Example 110, 6-Fluoro-8-methyl-7-(3-(6-(4-methylpiperazin-1-yl)pyridin-3-yl)-1H-pyrazolo[4,3-d]pyrimidin-5-yl)-1,2,3,4-tetrahydroisoquinoline] the figure was at most 100 nM; with `O=S(=O)(c1ccc(-c2n[nH]c3cnc(-c4c(F)cc5c(c4F)CNCC5)nc23)cc1)N1CCC1` [Example 96, 7-(3-(4-(Azetidin-1-ylsulfonyl)phenyl)-1H-pyrazolo[4,3-d]pyrimidin-5-yl)-6,8-difluoro-1,2,3,4-tetrahydroisoquinoline], at most 100 nM.
With `COc1cccc(F)c1-c1ncc2[nH]nc(-c3cccc(N4CCOCC4)c3)c2n1` [Example 29, 4-(3-(5-(2-Fluoro-6-methoxyphenyl)-1H-pyrazolo[4,3-d]pyrimidin-3-yl)phenyl)morpholine] the figure was at most 100 nM.
Then `COc1c(-c2ncc3[nH]nc(-c4ccc(N5CCOCC5)nc4)c3n2)c(F)cc2c1C(N)CC2` (stereo not shown) [Example 119, 5-Fluoro-7-methoxy-6-(3-(6-morpholinopyridin-3-yl)-1H-pyrazolo[4,3-d]pyrimidin-5-yl)-2,3-dihydro-1H-inden-1-amine], with at most 100 nM; and `COc1cccc(F)c1-c1ncc2[nH]nc(-c3ccn(C)c(=O)c3)c2n1` [Example 49, 4-(5-(2-Fluoro-6-methoxyphenyl)-1H-pyrazolo[4,3-d]pyrimidin-3-yl)-1-methylpyridin-2(1H)-one], with at most 100 nM.
As to `Cc1cccc(F)c1-c1ncc2[nH]nc(-c3ccc(N4CCC(C#N)CC4)cc3)c2n1` [Example 58, 1-(4-(5-(2-Fluoro-6-methylphenyl)-1H-pyrazolo[4,3-d]pyrimidin-3-yl)phenyl)piperidine-4-carbonitrile], the Ki is at most 100 nM.
Then `CNCc1cc(F)c(-c2ncc3[nH]nc(-c4ccnc(N5CCOCC5)c4F)c3n2)c(F)c1` [Example 69, 1-(3,5-Difluoro-4-(3-(3-fluoro-2-morpholinopyridin-4-yl)-1H-pyrazolo[4,3-d]pyrimidin-5-yl)phenyl)-N-methylmethanamine], with at most 100 nM; and `CNCc1cc(F)c(-c2ncc3[nH]nc(-c4ccc(N5CCC(C)(O)CC5)nc4)c3n2)c(F)c1` [Example 122, 1-(5-(5-(2,6-Difluoro-4-((methylamino)methyl)phenyl)-1H-pyrazolo[4,3-d]pyrimidin-3-yl)pyridin-2-yl)-4-methylpiperidin-4-ol], with at most 100 nM.
Then `COc1cccc(F)c1-c1ncc2[nH]nc(-c3ccc(C4CCOCC4)cc3)c2n1` [Example 43, 5-(2-Fluoro-6-methoxyphenyl)-3-(4-(tetrahydro-2H-pyran-4-yl)phenyl)-1H-pyrazolo[4,3-d]pyrimidine], with at most 100 nM; and `COc1cccc(F)c1-c1ncc2[nH]nc(-c3ccc(C#N)cc3)c2n1` [Example 17, 4-(5-(2-Fluoro-6-methoxyphenyl)-1H-pyrazolo[4,3-d]pyrimidin-3-yl)benzonitrile], with at most 100 nM; and `CNC(=O)c1cncc(-c2ncc3[nH]nc(-c4ccc(N5CCN(C)CC5)cc4)c3n2)c1` [Example 9, N-Methyl-5-(3-(4-(4-methylpiperazin-1-yl)phenyl)-1H-pyrazolo[4,3-d]pyrimidin-5-yl)nicotinamide], with at most 100 nM.
With `Cc1cccc(F)c1-c1ncc2[nH]nc(-c3ccc(N4CCNCC4)cc3)c2n1` [Example 59, 5-(2-Fluoro-6-methylphenyl)-3-(4-(piperazin-1-yl)phenyl)-1H-pyrazolo[4,3-d]pyrimidine] the figure was at most 100 nM; with `COc1cccc(F)c1-c1ncc2[nH]nc(-c3ccc(N4CCN(C(C)=O)CC4)nc3)c2n1` [Example 54, 1-(4-(5-(5-(2-Fluoro-6-methoxyphenyl)-1H-pyrazolo[4,3-d]pyrimidin-3-yl)pyridin-2-yl)piperazin-1-yl)ethan-1-one], at most 100 nM; with `CN(C)CC(=O)Nc1cc(F)c(-c2ncc3[nH]nc(-c4cnn(C)c4)c3n2)c(F)c1` [Example 83, N-(3,5-Difluoro-4-(3-(1-methyl-1H-pyrazol-4-yl)-1H-pyrazolo[4,3-d]pyrimidin-5-yl)phenyl)-2-(dimethylamino)acetamide], at most 100 nM.
With `CNCc1cc(F)c(-c2ncc3[nH]nc(-c4ccc(C(=O)NC)nc4)c3n2)c(F)c1` [Example 61, 5-(5-(2,6-Difluoro-4-((methylamino)methyl)phenyl)-1H-pyrazolo[4,3-d]pyrimidin-3-yl)-N-methylpicolinamide], the Ki is at most 100 nM.
With `CNC(=O)c1cccc(-c2ncc3[nH]nc(-c4ccc(N5CCN(C)CC5)cc4)c3n2)c1F` [Example 47, 2-Fluoro-N-methyl-3-(3-(4-(4-methylpiperazin-1-yl)phenyl)-1H-pyrazolo[4,3-d]pyrimidin-5-yl)benzamide] the figure was 100 to 500 nM; with `Cc1cc2c(c(F)c1-c1ncc3[nH]nc(-c4ccc(N5CCN(C)CC5)nc4)c3n1)CNCC2` [Example 112, 8-Fluoro-6-methyl-7-(3-(6-(4-methylpiperazin-1-yl)pyridin-3-yl)-1H-pyrazolo[4,3-d]pyrimidin-5-yl)-1,2,3,4-tetrahydroisoquinoline], at most 100 nM; with `CCN1CCN(c2ccc(-c3n[nH]c4cnc(-c5c(C)cc(C6CCCCN6)cc5F)nc34)cc2)CC1` (stereo not shown) [Example 125, 3-(4-(4-Ethylpiperazin-1-yl)phenyl)-5-(2-fluoro-6-methyl-4-(piperidin-2-yl)phenyl)-1H-pyrazolo[4,3-d]pyrimidine], at most 100 nM.
With `COc1ccc(-c2ncc3[nH]nc(-c4ccc(N5CCN(C)CC5)cc4)c3n2)c2c1CNCC2` [Example 100, 8-Methoxy-5-(3-(4-(4-methylpiperazin-1-yl)phenyl)-1H-pyrazolo[4,3-d]pyrimidin-5-yl)-1,2,3,4-tetrahydroisoquinoline] the figure was at most 100 nM; with `COc1cccc(F)c1-c1ncc2[nH]nc(-c3ccccc3C)c2n1` [Example 20, 5-(2-Fluoro-6-methoxyphenyl)-3-o-tolyl-1H-pyrazolo[4,3-d]pyrimidine], 500 to 5000 nM.
With `CNCc1cc(F)c(-c2ncc3[nH]nc(-c4cnc(N5CCOCC5)c(C#N)c4)c3n2)c(F)c1` [Example 68, 5-(5-(2,6-Difluoro-4-((methylamino)methyl)phenyl)-1H-pyrazolo[4,3-d]pyrimidin-3-yl)-2-morpholinonicotinonitrile] the figure was at most 100 nM; with `COc1cccc(F)c1-c1ncc2[nH]nc(-c3cncnc3)c2n1` [Example 16, 5-(2-Fluoro-6-methoxyphenyl)-3-(pyrimidin-5-yl)-1H-pyrazolo[4,3-d]pyrimidine], 100 to 500 nM.
